The structures appear in SMILES notation.

The target of assay [1] is T1, bd oxidase (cytochrome bd) (Shewanella oneidensis, UniProt Q8EC58).
T1 construct: gene cydA; native cydABX complex in membrane preparations of S. oneidensis Δcco strain (cbb3 oxidase absent), not purified, no tag; with Cytochrome bd ubiquinol oxidase subunit II CydB; Cytochrome bd oxidase small subunit CydX
T1 sequence (Q8EC58 1-518): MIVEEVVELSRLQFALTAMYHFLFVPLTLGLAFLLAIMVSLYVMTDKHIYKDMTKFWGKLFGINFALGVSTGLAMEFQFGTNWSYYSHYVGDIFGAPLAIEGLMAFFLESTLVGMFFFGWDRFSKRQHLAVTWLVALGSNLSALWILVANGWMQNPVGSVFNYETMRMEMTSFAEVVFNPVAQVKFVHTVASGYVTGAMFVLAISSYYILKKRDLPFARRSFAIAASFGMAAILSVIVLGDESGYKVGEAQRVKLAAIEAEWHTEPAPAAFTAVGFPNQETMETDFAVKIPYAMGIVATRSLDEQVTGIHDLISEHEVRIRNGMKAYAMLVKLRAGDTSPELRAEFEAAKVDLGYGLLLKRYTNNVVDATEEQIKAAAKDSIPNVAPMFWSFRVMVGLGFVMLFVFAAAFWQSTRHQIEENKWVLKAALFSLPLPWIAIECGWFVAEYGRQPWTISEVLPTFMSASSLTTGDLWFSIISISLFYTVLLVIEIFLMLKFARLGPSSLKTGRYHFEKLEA
T1 sequence (Q8EC59 1-379 partner): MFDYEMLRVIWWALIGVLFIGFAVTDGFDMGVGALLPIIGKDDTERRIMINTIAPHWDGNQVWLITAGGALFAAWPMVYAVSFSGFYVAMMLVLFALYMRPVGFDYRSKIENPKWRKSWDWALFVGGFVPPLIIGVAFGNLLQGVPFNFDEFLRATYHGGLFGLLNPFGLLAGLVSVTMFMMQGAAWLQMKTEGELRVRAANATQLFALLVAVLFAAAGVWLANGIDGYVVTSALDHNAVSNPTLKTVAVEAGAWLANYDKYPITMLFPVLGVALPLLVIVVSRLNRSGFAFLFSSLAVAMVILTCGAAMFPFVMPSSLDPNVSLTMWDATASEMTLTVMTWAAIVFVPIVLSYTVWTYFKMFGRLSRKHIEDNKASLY
T1 sequence (Q8EC60 1-38 partner): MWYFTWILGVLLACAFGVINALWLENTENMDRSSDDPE
The assay is described as follows: oxygen consumption (O2 electrode), membranes of Δcco strain. Format: biochemical. Particulars: ~70 μmol/L O2; ubiquinol-1 as electron donor; no added ScyA.

Assay [2] deals with T2, cbb3-HCO (cytochrome cbb3 oxidase) (Shewanella oneidensis, UniProt Q8EEL5).
T2 construct: gene ccoN; native ccoNOQP complex in membrane preparations of S. oneidensis Δcyd strain (bd oxidase absent), not purified, no tag; with Cbb3-type cytochrome c oxidase subunit II CcoO; Cbb3-type cytochrome c oxidase subunit III CcoP; Cbb3-type cytochrome c oxidase subunit IV CcoQ
T2 sequence (Q8EEL5 1-478): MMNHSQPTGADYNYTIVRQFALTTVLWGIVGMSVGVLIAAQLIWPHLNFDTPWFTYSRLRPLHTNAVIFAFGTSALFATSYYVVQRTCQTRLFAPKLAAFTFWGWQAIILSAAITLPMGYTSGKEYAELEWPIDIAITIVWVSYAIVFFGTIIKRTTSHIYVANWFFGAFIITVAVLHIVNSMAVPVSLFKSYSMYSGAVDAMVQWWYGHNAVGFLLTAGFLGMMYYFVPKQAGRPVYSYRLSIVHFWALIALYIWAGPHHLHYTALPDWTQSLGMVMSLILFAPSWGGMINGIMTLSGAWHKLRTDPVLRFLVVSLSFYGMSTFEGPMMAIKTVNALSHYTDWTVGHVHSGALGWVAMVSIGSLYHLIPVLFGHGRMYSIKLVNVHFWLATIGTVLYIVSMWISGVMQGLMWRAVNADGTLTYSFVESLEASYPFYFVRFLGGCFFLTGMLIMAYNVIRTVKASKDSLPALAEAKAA
T2 sequence (Q8EEL6 1-208 partner): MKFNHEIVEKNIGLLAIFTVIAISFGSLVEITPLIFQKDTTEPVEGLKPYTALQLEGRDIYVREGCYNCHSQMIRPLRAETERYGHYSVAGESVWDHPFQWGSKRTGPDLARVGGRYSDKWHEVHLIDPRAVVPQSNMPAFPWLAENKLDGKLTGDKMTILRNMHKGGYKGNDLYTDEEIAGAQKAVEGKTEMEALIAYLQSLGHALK
T2 sequence (Q8EEL8 1-322 partner): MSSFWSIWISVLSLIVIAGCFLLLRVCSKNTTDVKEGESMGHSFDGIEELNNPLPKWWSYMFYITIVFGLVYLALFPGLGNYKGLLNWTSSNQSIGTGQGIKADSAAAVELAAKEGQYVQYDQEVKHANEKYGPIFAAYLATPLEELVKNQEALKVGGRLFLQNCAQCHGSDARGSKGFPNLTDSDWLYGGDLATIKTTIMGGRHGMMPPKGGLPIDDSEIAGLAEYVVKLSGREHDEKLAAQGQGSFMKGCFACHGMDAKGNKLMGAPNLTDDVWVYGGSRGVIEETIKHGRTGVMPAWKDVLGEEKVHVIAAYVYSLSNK
T2 sequence (Q8EEL7 1-58 partner): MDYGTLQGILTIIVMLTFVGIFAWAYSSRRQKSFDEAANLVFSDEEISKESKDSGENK
The assay is described as follows: oxygen consumption (O2 electrode), membranes of Δcyd strain. The settings on record: ~70 μmol/L O2; ascorbate + TMPD as electron donor; no added ScyA. Format: biochemical.

For `O=NO` [nitrite], the IC50 in assay [1] was about 180 nM; in assay [2], about 50 nM.

One may read the IC50 as the concentration at which inhibition is half-maximal.

For the origin of these results see paper PMC4335978, “Regulation of nitrite resistance of the cytochrome cbb3 oxidase by cytochrome c ScyA in Shewanella oneidensis” (MicrobiologyOpen, 2014).
